Test results taken from patent US4059687A, “Ester substituted dibiguanides and non-toxic antimicrobial compositions thereof” (Colgate Palmolive Company, priority 1976, dated 1977).
Converted amounts (≈) assume the structure as drawn. Where a name gives a salt, the structure may show the parent alone.

Legend:
[1] = system: Trichophyton mentogrophytes; assay: test tube serial dilution test (minimal inhibitory concentration), T. ment (mold); assay type: cell-based; settings: broth serial dilution; for MIC: Trichophyton, read-out: Minimum Inhibitory Concentration, T. ment
Text: (§1) It has been observed that the compounds generally described by the foregoing formula are particularly effective against gram positive organisms such as Staphylococcus aureus, Streptococcus sanguis and Streptococcus mutans; gram negative organisms such as Pseudomonas aeruginosa and Escherichia coli; and against fungi, such as Candida alibicans (yeast) and Trichophyton mentogrophytes and Aspergillus niger (mold). Compounds wherein A or B is a carboxyl radical in lieu of instant alkyl ester radical are substantially devoid of antibacterial activity.
(§2) The anti-microbial nature of the instant novel nontoxic compounds was shown by a standard test tube serial dilution test in which an appropriate number of test tubes of broth containing decreasing concentrations of the test agent was innoculated with the test organism (0.1% in ethyl alcohol). After a suitable period of incubation, the tubes were examined for the presence or absence of growth. The activity of the test agent was the lowest concentration which inhibited the growth of the organism and is expressed as the minimal inhibitory concentration in μ gm/ml. As shown in the following table of antimicrobial data, the dibiguanides of this invention are active against a variety of micro-organisms with maximum activity with a butyl and pentyl ester substituent on the phenyl radical.

Streptococcus sanguis = assay: test tube serial dilution test (minimal inhibitory concentration), Strep. sanguis (Gram positive); assay type: cell-based; settings: broth serial dilution; for MIC: Streptococcus, read-out: Minimum Inhibitory Concentration, Strep. sanguis
Text: as §1, §2

Staphylococcus aureus = assay: test tube serial dilution test (minimal inhibitory concentration), S. aureus (Gram positive); assay type: cell-based; settings: broth serial dilution; for MIC: Staphylococcus aureus, read-out: Minimum Inhibitory Concentration, S. aureus
Text: as §1, §2

Pseudomonas aeruginosa = assay: test tube serial dilution test (minimal inhibitory concentration), Ps. aeruginosa (Gram negative); assay type: cell-based; settings: broth serial dilution; for MIC: Pseudomonas aeruginosa, read-out: Minimum Inhibitory Concentration, Ps. aeruginosa
Text: as §1, §2

C. albicans = assay: test tube serial dilution test (minimal inhibitory concentration), C. albicans (yeast); assay type: cell-based; settings: broth serial dilution; for MIC: Candida albicans, read-out: Minimum Inhibitory Concentration, C. albicans
Text: as §1, §2

Streptococcus mutans = assay: test tube serial dilution test (minimal inhibitory concentration), Strep. mutans (Gram positive); assay type: cell-based; settings: broth serial dilution; for MIC: Streptococcus mutans, read-out: Minimum Inhibitory Concentration, Strep. mutans
Text: as §1, §2

Aspergillus niger = assay: test tube serial dilution test (minimal inhibitory concentration), A. niger (mold); assay type: cell-based; settings: broth serial dilution; for MIC: Aspergillus niger, read-out: Minimum Inhibitory Concentration, A. niger
Text: as §1, §2

Escherichia coli = assay: test tube serial dilution test (minimal inhibitory concentration), E. coli (Gram negative); assay type: cell-based; settings: broth serial dilution; for MIC: Escherichia coli, read-out: Minimum Inhibitory Concentration, E. coli
Text: as §1, §2

[2] = on standing; cited from earlier work
dental plaque = settings: background statement; cited from earlier work
[3] = literature; cited from earlier work

SMILES | MIC [1] [µg/mL] | MIC (Streptococcus sanguis) [µg/mL] | MIC (Staphylococcus aureus) [µg/mL] | MIC (Pseudomonas aeruginosa) [µg/mL] | MIC (C. albicans) [µg/mL] | MIC (Streptococcus mutans) [µg/mL] | MIC (Aspergillus niger) [µg/mL] | MIC (Escherichia coli) [µg/mL] | Minimum Inhibitory Concentration, T. ment [1] [μgm/ml] | Minimum Inhibitory Concentration, Strep. sanguis (Streptococcus sanguis) | Minimum Inhibitory Concentration, S. aureus (Staphylococcus aureus) | Minimum Inhibitory Concentration, Ps. aeruginosa (Pseudomonas aeruginosa) [μgm/ml] | Minimum Inhibitory Concentration, C. albicans (C. albicans) [μgm/ml] | Minimum Inhibitory Concentration, Strep. mutans (Streptococcus mutans) | Minimum Inhibitory Concentration, A. niger (Aspergillus niger) [μgm/ml] | Minimum Inhibitory Concentration, E. coli (Escherichia coli) | hydrolysis of solutions to p-chloroaniline [2] | antibacterial effect against dental plaque (dental plaque) | bacteriostatic activity in words [3]
CC(C)OC(=O)c1ccc(NC(=N)NC(=N)NCCCCCCNC(=N)NC(=N)Nc2ccc(C(=O)OC(C)C)cc2)cc1 [A = (CH3)2 CHOCO, B = H] | 6.25 (≈ 10.3 µM) | 6.25 (≈ 10.3 µM) | 0.19 (≈ 0.312 µM) | 25 (≈ 41.1 µM) | 1.56 (≈ 2.56 µM) | 0.1 (≈ 0.164 µM) | 50 (≈ 82.1 µM) | 1.56 (≈ 2.56 µM) |  |  |  |  |  |  |  |  |  |  | 
CCOC(=O)c1ccc(NC(=N)NC(=N)NCCCCCCNC(=N)NC(=N)Nc2ccc(C(=O)OCC)cc2)cc1 [A = C2 H5 OCO, B = H, N,N"-bis(4-ethoxycarbonylphenyl)-3,12-diimino-2,4,11,13-tetraazatetradecanediimidamide dihydrochloride] | 12.5 | 25 | 0.78 | 25 | 12.5 | 0.39 | 100 | 1.56 |  |  |  |  |  |  |  |  |  |  | 
CCCOC(=O)c1ccc(NC(=N)NC(=N)NCCCCCCNC(=N)NC(=N)Nc2ccc(C(=O)OCCC)cc2)cc1 [A = C3 H7 OCO, B = H] | 3.12 (≈ 5.13 µM) | 3.12 (≈ 5.13 µM) | 0.19 (≈ 0.312 µM) | 25 (≈ 41.1 µM) | 3.12 (≈ 5.13 µM) | < 0.05 | 100 (≈ 164 µM) | 1.56 (≈ 2.56 µM) |  |  |  |  |  |  |  |  |  |  | 
CCCCOC(=O)c1ccc(NC(=N)NC(=N)NCCCCCCNC(=N)NC(=N)Nc2ccc(C(=O)OCCCC)cc2)cc1 [A = C4 H9 OCO, B = H] |  |  |  |  |  |  |  |  | 12.5 | .78 μgm/ml | 0.1 μgm/ml | 12.5 | 0.78 | < .05 μgm/ml | 50 | 1.56 μgm/ml |  |  | 
CCCCCOC(=O)c1ccc(NC(=N)NC(=N)NCCCCCCNC(=N)NC(=N)Nc2ccc(C(=O)OCCCCC)cc2)cc1 [A = C5 H11 OCO, B = H] | 25 (≈ 37.6 µM) | 0.19 (≈ 0.286 µM) | 0.39 (≈ 0.587 µM) | 50 (≈ 75.2 µM) | 0.39 (≈ 0.587 µM) | < 0.05 | 50 (≈ 75.2 µM) | 25 (≈ 37.6 µM) |  |  |  |  |  |  |  |  |  |  | 
CCCCCCOC(=O)c1ccc(NC(=N)NC(=N)NCCCCCCNC(=N)NC(=N)Nc2ccc(C(=O)OCCCCCC)cc2)cc1 [A = C6 H13 OCO, B = H] | 12.5 (≈ 18 µM) | 0.39 (≈ 0.563 µM) | 0.39 (≈ 0.563 µM) | 50 (≈ 72.2 µM) | 0.39 (≈ 0.563 µM) | 0.39 (≈ 0.563 µM) | 100 (≈ 144 µM) | 6.25 (≈ 9.02 µM) |  |  |  |  |  |  |  |  |  |  | 
CCCCCCCCOC(=O)c1ccc(NC(=N)NC(=N)NCCCCCCNC(=N)NC(=N)Nc2ccc(C(=O)OCCCCCCCC)cc2)cc1 [A = C8 H17 OCO, B = H, N,N"-bis(4-Octyloxycarbonylphenyl)-3,12-diimino-2,4,11,13-tetraazatetradecanediimidamide dihydrochloride] | 25 | 25 | 1.56 | 50 | 12.5 | 1.56 | 100 | 12.5 |  |  |  |  |  |  |  |  |  |  | 
COC(=O)c1ccc(NC(=N)NC(=N)NCCCCCCNC(=N)NC(=N)Nc2ccc(C(=O)OC)cc2)cc1 [A = CH3 OCO, B = H] |  |  |  |  |  |  |  |  | 12.5 | 50 μgm/ml | 6.25 μgm/ml | 50 | 25 | 1.56 μgm/ml | 100 | 25 μgm/ml |  |  | 
N=C(NCCCCCCNC(=N)NC(=N)Nc1ccc(C(=O)O)cc1)NC(=N)Nc1ccc(C(=O)O)cc1 [A = COOH, B = H, reference compound] | 100 (≈ 191 µM) | 100 (≈ 191 µM) | 10 (≈ 19.1 µM) | 50 (≈ 95.3 µM) | 100 (≈ 191 µM) | 25 (≈ 47.7 µM) | 100 (≈ 191 µM) | 100 (≈ 191 µM) |  |  |  |  |  |  |  |  |  |  | 
CC(C)OC(=O)c1cccc(NC(=N)NC(=N)NCCCCCCNC(=N)NC(=N)Nc2cccc(C(=O)OC(C)C)c2)c1 [A = H, B = (CH3)2 CHOCO, dihydrochloride] | 12.5 | 12.5 | 0.19 | 50 | 3.12 | 0.1 | 50 | 3.12 |  |  |  |  |  |  |  |  |  |  | 
CCCCOC(=O)c1cccc(NC(=N)NC(=N)NCCCCCCNC(=N)NC(=N)Nc2cccc(C(=O)OCCCC)c2)c1 [A = H, B = C4 H9 OCO] | 6.25 (≈ 9.81 µM) | 1.56 (≈ 2.45 µM) | < 0.05 | 12.5 (≈ 19.6 µM) | 0.39 (≈ 0.612 µM) | < 0.05 | 50 (≈ 78.5 µM) | 0.78 (≈ 1.22 µM) |  |  |  |  |  |  |  |  |  |  | 
COC(=O)c1cccc(NC(=N)NC(=N)NCCCCCCNC(=N)NC(=N)Nc2cccc(C(=O)OC)c2)c1 [A = H, B = CH3 OCO] | 12.5 (≈ 22.6 µM) | 100 (≈ 181 µM) | 3.12 (≈ 5.65 µM) | 50 (≈ 90.5 µM) | 25 (≈ 45.2 µM) | 1.56 (≈ 2.82 µM) | 100 (≈ 181 µM) | 12.5 (≈ 22.6 µM) |  |  |  |  |  |  |  |  |  |  | 
N=C(NCCCCCCNC(=N)NC(=N)Nc1ccc(Cl)cc1)NC(=N)Nc1ccc(Cl)cc1 [Chlorhexidine hydrochloride, reference compound] |  |  |  |  |  |  |  |  | 1.56 | 6.25 μgm/ml | .19 μgm/ml | 12.5 | 3.12 | < .05 μgm/ml | 25 | .78 μgm/ml |  |  | 
N=C(NCCCCCCNC(=N)NC(=N)Nc1ccc(Cl)cc1)NC(=N)Nc1ccc(Cl)cc1 [Chlorhexidine, reference compound] |  |  | 0.19 (≈ 0.376 µM) |  | 1.56 (≈ 3.09 µM) | < 0.05 | 25 (≈ 49.5 µM) |  |  | 3.12 μgm/ml |  |  |  |  |  | 0.19 μgm/ml | hydrolyze on standing to form additional amounts of p-chloroaniline | effective antibacterial agent against dental plaque | selected as the best
CCCCOC(=O)c1ccc(NC(=N)NC(=N)NCCCCCCNC(=N)NC(=N)Nc2ccc(C(=O)OCCCC)cc2)cc1 [drawing 6: A = C4 H9 OCO, B = H] |  | 0.78 (≈ 1.22 µM) | 0.05 (≈ 0.0785 µM) | 25 (≈ 39.3 µM) | 0.78 (≈ 1.22 µM) | < 0.05 | 100 (≈ 157 µM) | 3.12 (≈ 4.9 µM) | 0.19 |  |  |  |  |  |  |  |  |  | 
COC(=O)c1ccc(NC(=N)NC(=N)NCCCCCCNC(=N)NC(=N)Nc2ccc(C(=O)OC)cc2)cc1 [drawing 6: A = CH3 OCO, B = H] | 25 (≈ 45.2 µM) | 50 (≈ 90.5 µM) |  | 25 (≈ 45.2 µM) | 25 (≈ 45.2 µM) |  | 100 (≈ 181 µM) | 50 (≈ 90.5 µM) |  |  | 3.12 μgm/ml |  |  | 25 μgm/ml |  |  |  |  | 
